The source of these data is publication PMC7077018, “Gas chromatography-mass spectrometry analysis, phytochemical screening and antiprotozoal effects of the methanolic Viola tricolor and acetonic Laurus nobilis extracts” (BMC Complementary Medicine and Therapies, 2020).

≈ marks a conversion by molar mass, not a printed value. Like-named read-outs stand apart in the source and are kept apart here.

Assay [1] deals with human foreskin fibroblast (HFF) cells. In words: Cytotoxicity assay on normal cells (CCK-8). It counts as cell-based. To be noted: HFF cell viability, 24 h. The protocol: (§1) Cultures of Human foreskin fibroblast (HFF; HFF-1 ATCC® SCRC-1041™), Madin–Darby bovine kidney (MDBK; ECACC) and mouse embryonic fibroblast (NIH/3 T3; ATCC® CRL-1658™) cells were retrieved from − 80 °C stock and cultured continuously at 37 °C under atmosphere 5% CO2 in our laboratory. The NIH/3 T3 and HFFs cells were preserved in Dulbecco Modified Eagle’s Medium (DMEM; Gibco, Grand Island, NY, USA), while MDBK cell line grown in Minimum Essential Medium Eagle (MEM; Gibco). All mediums were treated with 2 mM glutamine, 0.5% penicillin/streptomycin (Gibco) and 10% inactivated fetal bovine serum. Every 72 to 96 h, the medium was replaced, and once 80% confluence was reached, the cell collection was performed by sub-culture protocol. To confirm the absence of mycoplasma contamination, 4, 6-diamidino-2-phenylindole dihydrochloride (Sigma-Aldrich, USA) stain was used.
(§2) The cell viability test was conducted in a 96-well plate as described elsewhere. Briefly, an aliquot of (100 μL) cells was implanted at 5 × 10^4 cells/mL in DMEM or MEM with fetal bovine serum and incubated overnight under atmosphere 5% CO2 at 37 °C for attachment. Using two-fold dilutions, aliquots (10 μL) of herbal extracts and reference drugs were added in triplicate per well and further incubated for 24 h. The positive control wells containing cells mixed with the medium in 0.4% DMSO, whereas the negative control wells containing culture medium only. After a 24-h incubation, Cell Counting Kits-8 (CCK-8) (10 μL) was added per well and then plate incubation was conducted for an additional 3 h and a microplate reader was used to assess the absorbance at 450 nm.

Assay [2] deals with mouse embryonic fibroblast (NIH/3 T3) cells. In words: Cytotoxicity assay on normal cells (CCK-8). It counts as cell-based. The conditions noted are these: 24 h. On the procedure:
as §1, §2

The test system of assay [3] is Madin–Darby bovine kidney (MDBK) cells. Kind of assay: Cytotoxicity assay on normal cells (CCK-8). The format is cell-based. To be noted: MDBK cell viability, 24 h. On the procedure:
as §1, §2

Another assay deals with B. bovis. Kind of assay: Babesia fluorescent (SYBR Green I) in vitro growth inhibition assay. It counts as cell-based. To be noted: for IC50: B. bovis, in vitro, 4 days. An excerpt:
(§3) For the in vitro experiments, a German strain B. divergens, Argentine strain B. bigemina, Texas strain B. bovis, were cultivated in cattle RBCs, while USDA strains of equine piroplasm parasites (T. equi and B. caballi) were maintained in horse RBCs. […] For conducting the in vivo study, female BALB/c mice, aged six-week, obtained from CLEA Japan were infected with B. microti Munich strain [1]. […] GIT medium replenished with 40% horse serum was used as a growth medium for B. caballi parasite culture. To ensure free-bacterial contamination, all medium was supplemented with amphotericin B (0.15 μg/mL) (Sigma-Aldrich, USA), streptomycin (60 U/mL) and penicillin G (60 U/mL). The Babesia fluorescent assay was carried out on the in vitro culture as previously reported elsewhere. […] On day four of culture, an aliquot (100 μL) of lysis buffer was added to 0.2 μL/mL SG1 per well; subsequently, it was covered with aluminum foil to prevent exposure to light. After a 6-h incubation at 37 °C, fluorescence readings were acquired on a spectrofluorimeter (Fluoroskan Ascent, Thermo Fisher Scientific, USA) with a 485 nm excitation wavelength and a 518 nm emission wavelength. The IC50 values of the two extracts, DMA and ATV were established from the in vitro growth inhibition by nonlinear regression curve fit on a GraphPad Prism (GraphPad Software Inc., USA). While for in vivo, the significant variations (p < 0.05) among group mean values on parasitemia and one-way ANOVA Tukey's test in GraphPad Prism version 5.0 was used to analyze hematology profiles in mice infected with B. microti.

Another assay relates to B. divergens. The assay is described as above. To be noted: for IC50: B. divergens, in vitro, 4 days. The format is cell-based.
Description: as §3

Another assay concerns B. caballi. Described as above. The conditions noted are these: for IC50: B. caballi, in vitro, 4 days. The format is cell-based.
Description: as §3

The subject of the next assay is T. equi. Described as above. It counts as cell-based. The conditions noted are these: for IC50: T. equi, in vitro, 4 days.
Description: as §3

Another assay has as its system B. bigemina. Described as above. It counts as cell-based. To be noted: for IC50: B. bigemina, in vitro, 4 days.
Description: as §3

Another assay concerns B. microti. In words: Chemotherapeutic effects against B. microti in infected BALB/c mice. It counts as in vivo. On the procedure:
For the in vitro experiments, a German strain B. divergens, Argentine strain B. bigemina, Texas strain B. bovis, were cultivated in cattle RBCs, while USDA strains of equine piroplasm parasites (T. equi and B. caballi) were maintained in horse RBCs. The parasite incubation occurred at 37 °C in a humidifying chamber under 90% N2, 5% O2, and 5% CO2 atmosphere using a microaerophilic stationary-phase culture. For conducting the in vivo study, female BALB/c mice, aged six-week, obtained from CLEA Japan were infected with B. microti Munich strain [1].
Twenty-five mice were placed in an environment free from pathogens with 22 °C temperature and adjusted humidity and under 12 h light and 12 h darkness and randomly distributed into five groups. The mice in groups 2 through 5 were obtained 500 μL of 1 × 10^7B. microti iRBC by intraperitoneal (i.p.) injection. Group 1 served as a negative control and was neither infected nor treated. At 1% parasitemia, drug treatment of the mice by i.p. started, continuing for 5 days. Group 2 act as a positive control group and received 95% DDW and 5% DMSO. […] The drug administration lasted for 5 days starting from the fourth day to the eighth day post-infection (p.i.), and parasitemia was checked by preparing Giemsa-stained smears every 2 days in about 2000 RBCs by microscopy until day 32 post-infection (p.i.). Furthermore, the hematological parameters, including hemoglobin (HGB), RBCs, and HCT, were determined by an automatic hematology analyzer (Celltac α MEK-6450, Nihon Kohden, Japan) every 4 days. After finishing the in vivo experiment, an anesthetic system using an inhaler containing isoflurane was used to euthanize all mice by placing them in the induction chamber, adjusting the oxygen flowmeter to 0.8 to 1.5 L/min and vaporizer to 3 to 5%. […]

The next assay relates to Leishmania. The arrangement: method as in PMID 28968213. The conditions noted are these: cited from earlier work.

One may read the EC50 as the concentration needed to bring the measured effect to its halfway point. Low values mean higher potency in that assay, high ones lower potency in that assay. A word on the IC50: it is the concentration that gives 50% inhibition. Turning to `O=C1C(O)=C([C@H]2CC[C@H](c3ccc(Cl)cc3)CC2)C(=O)c2ccccc21` [ATV, atovaquone], the EC50 in assay [1] (Homo sapiens) was more than 100 µg/mL; in assay [2] (Mus musculus, NIH3T3, NIH/3 T3 cell viability), more than 100 µg/mL; in assay [3] (Bos taurus), more than 100 µg/mL. Also, the half-inhibitory concentration (IC50) stood at 0.015 ± 0.001 µg/mL (≈ 0.0409 µM) in the assay on B. bovis (Bos taurus, 96 h, read-out: IC50); 0.014 ± 0.002 µg/mL (≈ 0.0382 µM) in the assay with B. divergens (96 h, read-out: IC50); 0.038 ± 0.01 µg/mL (≈ 0.104 µM) in the assay on B. caballi (Babesia caballi, 96 h, read-out: IC50); 0.035 ± 0.01 µg/mL (≈ 0.0954 µM) in the assay on T. equi (96 h, read-out: IC50); 0.26 ± 0.03 µg/mL (≈ 0.709 µM) in the assay on B. bigemina (96 h, read-out: IC50). For the same compound, the “Selective indices HFF” value is given as “˃ 6666.7” in the assay with B. bovis (EC50 HFF / IC50 B. bovis); “˃ 7142.9” in the assay with B. divergens (EC50 HFF / IC50 B. divergens); “˃ 2631.6” in the assay on B. caballi (EC50 HFF / IC50 B. caballi); “˃ 2857.1” in the assay with T. equi (EC50 HFF / IC50 T. equi); “˃ 384.6” in the assay with B. bigemina (EC50 HFF / IC50 B. bigemina). Moreover, the “Selective indices MDBK” value is reported as “˃ 6666.7” with B. bovis (EC50 MDBK / IC50 B. bovis); “˃ 7142.9” in the assay with B. divergens (EC50 MDBK / IC50 B. divergens); “˃ 2631.6” with B. caballi (EC50 MDBK / IC50 B. caballi); “˃ 2857.1” with T. equi (EC50 MDBK / IC50 T. equi); “˃ 384.6” in the assay with B. bigemina (EC50 MDBK / IC50 B. bigemina). Also, the “Selective indices NIH/3 T3” value is reported as “˃ 6666.7” with B. bovis (EC50 NIH/3 T3 / IC50 B. bovis); “˃ 7142.9” in the assay on B. divergens (EC50 NIH/3 T3 / IC50 B. divergens); “˃ 2631.6” in the assay with B. caballi (EC50 NIH/3 T3 / IC50 B. caballi); “˃ 2857.1” in the assay with T. equi (EC50 NIH/3 T3 / IC50 T. equi); “˃ 384.6” in the assay with B. bigemina (EC50 NIH/3 T3 / IC50 B. bigemina).
On to `CC(=O)NCC(=O)O.CC(=O)NCC(=O)O.N=C(N)c1ccc(N=NNc2ccc(C(=N)N)cc2)cc1` [DMA, diminazene aceturate], for which the “EC50 HFF” value in assay [1] is recorded as “˃ 100 μg/mL”. Besides, the “EC50 NIH/3 T3” value in [2] (NIH/3 T3 cell viability) is on record as “˃ 100 μg/mL”. In assay [3], the “EC50 MDBK” value was “˃ 100 μg/mL”. In addition, the concentration for half-maximal inhibition (IC50) in the assay with B. bovis amounted to 0.25 ± 0.02 µg/mL; in the assay on B. divergens, 0.35 ± 0.03 µg/mL; with B. caballi, 0.003 ± 0.001 µg/mL; with T. equi, 0.37 ± 0.01 µg/mL; in the assay with B. bigemina it was 0.11 ± 0.01 µg/mL. Moreover, the “Restriction of the parasitemia level” value with B. microti (25 mg kg−1, eighth day p.i., mice) was determined as 93.2%. The Level of parasitemia in the assay with B. microti (25 mg kg−1 intraperitoneally for 5 days, 8 days p.i., BALB/c mice) was found to be 3.9%. Also, the “Anemia development in mice” value with B. microti (B. microti-infected mice) is “prohibited anemia development”.
For `O=C/C=C/c1ccccc1` [cinnamaldehyde], the IC50 antileishmanial effect with Leishmania is 0.681 µg/mL (≈ 5.15 µM).
With `C=CCc1ccc(O)c(OC)c1` [eugenol], the IC50 antileishmanial effect with Leishmania is 1.43 µg/mL (≈ 8.68 µM).
